According to ChEMBL document CHEMBL5465560, “Selectivity Literature for EUbOPEN Chemogenomic Library” (2024):

Experiments:
[1] = biological target: Phosphatidylinositol 4-phosphate 5-kinase type-1 alpha (Homo sapiens) (UniProt Q99755); conditions: at 10 µM
[2] = test system: Receptor-type tyrosine-protein kinase FLT3 (Homo sapiens), P36888 [UNDEFINED MUTATION]; test: Selectivity interaction (KinomeScan (DiscoverX)) EUB0001049a FLT3; conditions: at 1 µM
[3] = biological target: T1, Peripheral plasma membrane protein CASK (Homo sapiens) (UniProt O14936); test: Selectivity interaction (Ambit KINOMEscan and KiNATiv profiling in Jurkat cells) EUB0000090b CASK; format: cell-based; conditions: at 1 µM
T1 sequence (whole entry): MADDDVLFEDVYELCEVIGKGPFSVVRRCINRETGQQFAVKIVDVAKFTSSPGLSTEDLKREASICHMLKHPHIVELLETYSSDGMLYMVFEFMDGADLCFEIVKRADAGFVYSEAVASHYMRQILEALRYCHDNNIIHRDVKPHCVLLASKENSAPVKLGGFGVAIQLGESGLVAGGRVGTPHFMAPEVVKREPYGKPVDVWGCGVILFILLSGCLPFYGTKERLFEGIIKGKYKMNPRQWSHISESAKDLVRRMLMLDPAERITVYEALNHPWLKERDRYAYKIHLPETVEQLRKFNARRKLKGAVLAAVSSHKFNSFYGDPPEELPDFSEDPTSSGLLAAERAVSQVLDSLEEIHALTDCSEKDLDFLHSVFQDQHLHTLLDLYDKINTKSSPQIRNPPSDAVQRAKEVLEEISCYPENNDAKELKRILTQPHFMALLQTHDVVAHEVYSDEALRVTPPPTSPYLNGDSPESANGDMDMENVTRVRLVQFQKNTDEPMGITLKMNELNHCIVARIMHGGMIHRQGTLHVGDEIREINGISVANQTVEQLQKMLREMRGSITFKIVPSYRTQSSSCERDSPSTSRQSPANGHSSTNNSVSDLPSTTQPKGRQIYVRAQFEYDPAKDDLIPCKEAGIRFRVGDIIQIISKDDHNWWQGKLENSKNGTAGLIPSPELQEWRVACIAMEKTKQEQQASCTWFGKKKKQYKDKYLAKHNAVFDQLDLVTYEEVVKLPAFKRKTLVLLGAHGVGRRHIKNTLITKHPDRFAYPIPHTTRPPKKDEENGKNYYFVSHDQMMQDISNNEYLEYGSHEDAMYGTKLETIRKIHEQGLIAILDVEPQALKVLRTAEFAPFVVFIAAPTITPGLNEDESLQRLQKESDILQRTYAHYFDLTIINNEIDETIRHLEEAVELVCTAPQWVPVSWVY

[4] = biological target: T2, Tyrosine-protein kinase Mer (Homo sapiens) (UniProt Q12866); test: Selectivity interaction (KinomeScan (DiscoverX)) EUB0000229b MERTK; conditions: at 10 µM
T2 sequence (whole entry): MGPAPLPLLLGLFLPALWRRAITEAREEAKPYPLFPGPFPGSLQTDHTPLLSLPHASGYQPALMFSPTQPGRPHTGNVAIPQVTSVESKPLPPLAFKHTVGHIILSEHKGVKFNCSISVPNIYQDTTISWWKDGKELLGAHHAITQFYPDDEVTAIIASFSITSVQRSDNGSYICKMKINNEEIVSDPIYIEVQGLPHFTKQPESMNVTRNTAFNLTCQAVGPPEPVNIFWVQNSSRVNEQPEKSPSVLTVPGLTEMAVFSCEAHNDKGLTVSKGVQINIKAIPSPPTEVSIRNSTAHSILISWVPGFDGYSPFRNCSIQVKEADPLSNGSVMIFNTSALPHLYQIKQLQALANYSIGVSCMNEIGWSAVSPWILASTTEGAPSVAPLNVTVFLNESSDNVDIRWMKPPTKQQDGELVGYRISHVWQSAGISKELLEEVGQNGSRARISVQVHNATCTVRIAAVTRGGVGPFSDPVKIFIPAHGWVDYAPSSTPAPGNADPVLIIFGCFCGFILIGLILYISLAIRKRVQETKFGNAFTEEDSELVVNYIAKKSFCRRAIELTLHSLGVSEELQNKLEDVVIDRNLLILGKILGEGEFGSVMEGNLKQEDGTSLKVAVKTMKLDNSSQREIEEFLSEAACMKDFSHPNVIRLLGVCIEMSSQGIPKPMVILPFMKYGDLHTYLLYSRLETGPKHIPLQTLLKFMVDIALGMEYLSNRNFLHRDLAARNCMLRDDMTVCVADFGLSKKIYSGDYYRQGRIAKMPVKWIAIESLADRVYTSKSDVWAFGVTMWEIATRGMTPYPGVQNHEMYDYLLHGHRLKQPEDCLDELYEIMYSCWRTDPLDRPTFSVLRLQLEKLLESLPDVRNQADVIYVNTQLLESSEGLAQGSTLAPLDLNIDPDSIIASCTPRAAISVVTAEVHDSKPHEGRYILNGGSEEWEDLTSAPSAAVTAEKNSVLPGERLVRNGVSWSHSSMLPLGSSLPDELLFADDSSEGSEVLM

[5] = biological target: T3, Mitogen-activated protein kinase kinase kinase kinase 2 (Homo sapiens) (UniProt Q12851); test: Selectivity interaction (KinomeScan (DiscoverX)) EUB0000655a MAP4K2; conditions: at 10 µM
T3 sequence (whole entry): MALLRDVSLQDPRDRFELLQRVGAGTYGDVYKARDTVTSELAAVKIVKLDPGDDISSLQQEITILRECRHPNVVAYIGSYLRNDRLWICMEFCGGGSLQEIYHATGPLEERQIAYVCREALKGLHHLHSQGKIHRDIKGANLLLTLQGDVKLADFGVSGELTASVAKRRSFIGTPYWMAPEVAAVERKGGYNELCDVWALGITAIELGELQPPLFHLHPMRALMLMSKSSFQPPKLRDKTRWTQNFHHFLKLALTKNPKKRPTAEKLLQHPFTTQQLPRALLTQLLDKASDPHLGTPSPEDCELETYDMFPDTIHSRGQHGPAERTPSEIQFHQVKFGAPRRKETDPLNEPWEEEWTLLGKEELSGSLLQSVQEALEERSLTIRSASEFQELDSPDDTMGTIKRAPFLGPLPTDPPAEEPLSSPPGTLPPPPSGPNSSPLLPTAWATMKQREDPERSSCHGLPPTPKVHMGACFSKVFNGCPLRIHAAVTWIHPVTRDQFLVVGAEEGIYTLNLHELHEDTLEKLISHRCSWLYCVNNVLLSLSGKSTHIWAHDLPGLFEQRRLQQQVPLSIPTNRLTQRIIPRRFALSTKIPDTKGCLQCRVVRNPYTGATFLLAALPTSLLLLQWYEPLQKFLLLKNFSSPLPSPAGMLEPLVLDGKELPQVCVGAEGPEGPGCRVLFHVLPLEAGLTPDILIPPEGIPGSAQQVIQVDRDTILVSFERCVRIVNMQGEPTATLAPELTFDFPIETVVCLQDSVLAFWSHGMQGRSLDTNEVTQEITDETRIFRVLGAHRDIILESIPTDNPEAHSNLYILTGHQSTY

[6] = biological target: Hepatocyte growth factor-like protein (Homo sapiens) (UniProt P26927); test: Selectivity interaction (KinomeScan (DiscoverX)) EUB0000655a MST1; conditions: at 10 µM

Chain of Receptor-type tyrosine-protein kinase FLT3 (Homo sapiens), P36888 [UNDEFINED MUTATION] (P36888 whole entry, looked up, change not shown): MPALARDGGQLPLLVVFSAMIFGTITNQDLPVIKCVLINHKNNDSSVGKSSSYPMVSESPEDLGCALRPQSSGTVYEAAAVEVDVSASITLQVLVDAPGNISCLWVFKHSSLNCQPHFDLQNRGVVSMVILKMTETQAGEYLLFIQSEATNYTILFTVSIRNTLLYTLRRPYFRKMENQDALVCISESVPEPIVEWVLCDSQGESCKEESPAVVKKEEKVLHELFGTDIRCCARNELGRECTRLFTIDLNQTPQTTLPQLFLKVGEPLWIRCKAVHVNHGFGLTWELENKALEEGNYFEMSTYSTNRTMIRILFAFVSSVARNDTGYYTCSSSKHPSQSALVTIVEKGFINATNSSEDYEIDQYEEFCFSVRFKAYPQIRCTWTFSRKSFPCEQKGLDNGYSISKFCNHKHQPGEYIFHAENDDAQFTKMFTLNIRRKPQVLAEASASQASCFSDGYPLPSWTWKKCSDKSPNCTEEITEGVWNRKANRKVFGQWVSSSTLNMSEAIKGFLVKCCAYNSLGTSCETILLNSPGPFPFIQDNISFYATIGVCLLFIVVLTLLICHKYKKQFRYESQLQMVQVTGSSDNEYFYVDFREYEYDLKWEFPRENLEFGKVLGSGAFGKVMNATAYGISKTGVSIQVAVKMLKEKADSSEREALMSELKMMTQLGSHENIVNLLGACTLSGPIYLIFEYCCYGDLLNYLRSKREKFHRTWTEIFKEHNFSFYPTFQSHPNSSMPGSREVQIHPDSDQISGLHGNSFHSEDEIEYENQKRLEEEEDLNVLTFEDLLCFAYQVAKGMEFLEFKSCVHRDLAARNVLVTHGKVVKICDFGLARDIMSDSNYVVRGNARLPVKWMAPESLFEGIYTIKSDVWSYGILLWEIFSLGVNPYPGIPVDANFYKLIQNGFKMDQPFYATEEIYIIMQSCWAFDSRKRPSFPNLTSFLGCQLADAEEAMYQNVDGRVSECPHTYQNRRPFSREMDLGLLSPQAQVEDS
Chain of Phosphatidylinositol 4-phosphate 5-kinase type-1 alpha (Homo sapiens) (Q99755 whole entry): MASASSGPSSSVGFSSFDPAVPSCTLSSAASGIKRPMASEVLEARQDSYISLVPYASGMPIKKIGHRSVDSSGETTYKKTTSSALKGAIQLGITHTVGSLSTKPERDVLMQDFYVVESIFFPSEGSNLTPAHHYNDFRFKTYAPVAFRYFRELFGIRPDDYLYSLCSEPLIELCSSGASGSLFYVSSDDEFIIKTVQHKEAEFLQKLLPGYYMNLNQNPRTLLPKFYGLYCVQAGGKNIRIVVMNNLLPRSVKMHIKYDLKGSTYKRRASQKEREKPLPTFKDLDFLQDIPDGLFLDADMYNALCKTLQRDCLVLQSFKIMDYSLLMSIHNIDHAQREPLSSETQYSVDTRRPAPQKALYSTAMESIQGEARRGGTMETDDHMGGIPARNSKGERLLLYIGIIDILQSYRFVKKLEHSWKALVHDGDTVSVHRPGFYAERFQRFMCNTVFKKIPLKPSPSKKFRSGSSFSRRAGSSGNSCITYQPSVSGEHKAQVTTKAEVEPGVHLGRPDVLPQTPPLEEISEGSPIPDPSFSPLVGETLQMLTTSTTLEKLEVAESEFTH

Structure (SMILES): Cc1cc([C@@H](C)Nc2ccccc2C(=O)O)c2nc(N3CCOCC3)cc(=O)n2c1 [AZD-6482]
- % of control [1]: 100%

Structure (SMILES): COc1cc(Nc2nc(C)cc(-c3cnn4nc(OC)ccc34)n2)cc(C(F)(F)F)c1
- % of control [2]: 96%

Structure (SMILES): CN(C)C/C=C/C(=O)Nc1ccc(C(=O)N2CCCC(Nc3ncc(Cl)c(-c4c[nH]c5ccccc45)n3)C2)cc1 (stereo unspecified)
- % of control [3]: 90%

Structure (SMILES): COc1cc(N(C)c2ccnc3ccc(C(F)(F)F)cc23)cc(OC)c1OC
- % binding [4]: 100%

Structure (SMILES): CN(C)CCOc1ccc(-c2nc(-c3ccncc3)c(-c3ccc4c(c3)CC/C4=N\O)[nH]2)cc1
- % of control [5]: 74%
- % of control [6]: 100%
